Assays:
[1] = test system: SKBR3 (PI3Kα wild type) cells; test: CellTiter-Glo 2.0 luminescent cell viability assay, 72 hours, SKBR3 cells; assay type: cell-based; details: Homo sapiens, SK-BR-3, 72 h, SKBR3 (PI3Kα wild type) cells, CellTiter-Glo, approximately 72 hours; read-out: SKBR3 (WT) Viability IC50
Method in brief: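 Viability measured via CTG luminescence following roughly 72 hours of compound exposure at 37° C. Dosing used a 10 um starting concentration diluted 1:4 over 10 points; percent-of-vehicle data fitted with a variable-slope four-parameter model for IC50.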

[2] = test system: T47D (PI3Kα H1047R mutant) cells; test: CellTiter-Glo 2.0 luminescent cell viability assay, 72 hours, T47D cells; assay type: cell-based; details: Homo sapiens, T47D, 72 h, T47D (PI3Kα H1047R mutant) cells, CellTiter-Glo, approximately 72 hours; read-out: T47D (H1047R mutant) Viability IC50
Method in brief: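 Viability was measured by CellTiter-Glo 2.0 luminescence after approximately 72 h of compound exposure at 37° C. Plating was 1000 cells per well the day before dosing, with ten 1:4 dilutions from a 10 µM top concentration. Values as percent of vehicle were fitted by variable-slope log(inhibitor) regression to give IC50.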

Row | Compound | IC50 [1] | IC50 [2]
1 | Cc1cc([C@@H](C)Nc2ccccc2C(=O)O)c2nc(-c3c[nH]cn3)c(C)c(=O)n2c1 [Example 11-235, (R)-2-((1-(2-(1H-imidazol-4-yl)-3,7-dimethyl-4-oxo-4H-pyrido[1,2-a]pyrimidin-9-yl)ethyl)amino)benzoic acid] | > 10 µM | 3.6 µM
2 | Cc1cc([C@@H](C)Nc2ccccc2C(=O)O)c2nc(-c3cn(-c4ccc(C#N)cc4)cn3)c(C)c(=O)n2c1 [Example 11-236, (R)-2-((1-(2-(1-(4-cyanophenyl)-1H-imidazol-4-yl)-3,7-dimethyl-4-oxo-4H-pyrido[1,2-a]pyrimidin-9-yl)ethyl)amino)benzoic acid] | > 10 µM | 0.679 µM
3 | Cc1cc([C@@H](C)Nc2ccccc2C(=O)O)c2nc(-c3cn(-c4ccc(C#N)cc4)cn3)cc(=O)n2c1 [Example 11-237, (R)-2-((1-(2-(1-(4-cyanophenyl)-1H-imidazol-4-yl)-7-methyl-4-oxo-4H-pyrido[1,2-a]pyrimidin-9-yl)ethyl)amino)benzoic acid] | > 10 µM | 1.41 µM
4 | Cc1cc([C@@H](C)Nc2ccccc2C(=O)O)c2nc(-c3cccc(C(C)(C)C#N)c3)c(C)c(=O)n2c1 [Example 11-238, (R)-2-((1-(2-(3-(2-cyanopropan-2-yl)phenyl)-3,7-dimethyl-4-oxo-4H-pyrido[1,2-a]pyrimidin-9-yl)ethyl)amino)benzoic acid] | > 10 µM | 0.31 µM
5 | Cc1cc([C@@H](C)Nc2ccccc2C(=O)O)c2nc(-c3cccc(C(C)(C)C#N)c3)cc(=O)n2c1 [Example 11-239, (R)-2-((1-(2-(3-(2-cyanopropan-2-yl)phenyl)-7-methyl-4-oxo-4H-pyrido[1,2-a]pyrimidin-9-yl)ethyl)amino)benzoic acid] | > 10 µM | 2.97 µM
6 | Cc1cc([C@@H](C)Nc2ccccc2C(=O)O)c2nc(-c3cnn(-c4ccc(C#N)cc4)c3)cc(=O)n2c1 [Example 11-240, (R)-2-((1-(2-(1-(4-cyanophenyl)-1H-pyrazol-4-yl)-7-methyl-4-oxo-4H-pyrido[1,2-a]pyrimidin-9-yl)ethyl)amino)benzoic acid] | 3.23 µM | 0.573 µM
7 | C#CC(Nc1ccccc1C(=O)O)c1cc(C)cn2c(=O)c(C)c(N3CCC(F)(F)CC3)nc12 (stereo not shown) [Example 11-241, 2-((1-(2-(4,4-difluoropiperidin-1-yl)-3,7-dimethyl-4-oxo-4H-pyrido[1,2-a]pyrimidin-9-yl)prop-2-yn-1-yl)amino)benzoic acid] | > 10 µM | > 10 µM
8 | Cc1cc([C@@H](C)Nc2ccccc2C(=O)O)c2nc(Cl)c(C)c(=O)n2c1 [Example 11-242, (R)-2-((1-(2-chloro-3,7-dimethyl-4-oxo-4H-pyrido[1,2-a]pyrimidin-9-yl)ethyl)amino)benzoic acid] | > 10 µM | > 10 µM
9 | Cc1cc([C@@H](C)Nc2ccccc2C(=O)O)c2nc(Cl)c(C#N)c(=O)n2c1 [Example 11-243, (R)-2-((1-(2-chloro-3-cyano-7-methyl-4-oxo-4H-pyrido[1,2-a]pyrimidin-9-yl)ethyl)amino)benzoic acid] | > 10 µM | 7.9 µM
10 | Cc1cc([C@@H](C)Nc2ccccc2C(=O)O)c2nc(C3CC3)c(C#N)c(=O)n2c1 [Example 11-244, (R)-2-((1-(3-cyano-2-cyclopropyl-7-methyl-4-oxo-4H-pyrido[1,2-a]pyrimidin-9-yl)ethyl)amino)benzoic acid] | > 10 µM | 0.116 µM
11 | Cc1cc([C@@H](C)Nc2ccccc2C(=O)O)c2nc(O[C@@H]3CCOC3)c(C)c(=O)n2c1 [Example 11-245, 2-(((R)-1-(3,7-dimethyl-4-oxo-2-(((R)-tetrahydrofuran-3-yl)oxy)-4H-pyrido[1,2-a]pyrimidin-9-yl)ethyl)amino)benzoic acid] | > 10 µM | 0.166 µM
12 | Cc1cc([C@@H](C)Nc2ccccc2C(=O)O)c2nc(O[C@H]3CCOC3)c(C)c(=O)n2c1 [Example 11-246, 2-(((R)-1-(3,7-dimethyl-4-oxo-2-(((S)-tetrahydrofuran-3-yl)oxy)-4H-pyrido[1,2-a]pyrimidin-9-yl)ethyl)amino)benzoic acid] | > 10 µM | 0.196 µM
13 | Cc1cc([C@@H](C)Nc2ccccc2C(=O)O)c2nc(O[C@@H]3CCOC3)c(C#N)c(=O)n2c1 [Example 11-247, 2-(((R)-1-(3-cyano-7-methyl-4-oxo-2-(((R)-tetrahydrofuran-3-yl)oxy)-4H-pyrido[1,2-a]pyrimidin-9-yl)ethyl)amino)benzoic acid] | > 10 µM | 1.54 µM
14 | Cc1cc([C@@H](C)Nc2ccccc2C(=O)O)c2nc(O[C@H]3CCOC3)c(C#N)c(=O)n2c1 [Example 11-248, 2-(((R)-1-(3-cyano-7-methyl-4-oxo-2-(((S)-tetrahydrofuran-3-yl)oxy)-4H-pyrido[1,2-a]pyrimidin-9-yl)ethyl)amino)benzoic acid] | 4.31 µM | 2.2 µM
15 | CNC(=O)c1ccc(N2CCN(c3nc4c([C@@H](C)Nc5ccccc5C(=O)O)cc(C)cn4c(=O)c3C)CC2)cc1 [Example 11-249, (R)-2-((1-(3,7-dimethyl-2-(4-(4-(methylcarbamoyl)phenyl)piperazin-1-yl)-4-oxo-4H-pyrido[1,2-a]pyrimidin-9-yl)ethyl)amino)benzoic acid] | > 10 µM | 0.118 µM
16 | Cc1cc([C@@H](C)Nc2ccccc2C(=O)O)c2nc(N3CCN(c4ccc(C(N)=O)cc4)CC3)c(C)c(=O)n2c1 [Example 11-250, (R)-2-((1-(2-(4-(4-carbamoylphenyl)piperazin-1-yl)-3,7-dimethyl-4-oxo-4H-pyrido[1,2-a]pyrimidin-9-yl)ethyl)amino)benzoic acid] | > 10 µM | 0.482 µM
17 | Cc1cc([C@@H](C)Nc2ccccc2C(=O)O)c2nc(N3CCN(c4cccc5c(C#N)nn(C)c45)CC3)c(C)c(=O)n2c1 [Example 11-251, (R)-2-((1-(2-(4-(3-cyano-1-methyl-1H-indazol-7-yl)piperazin-1-yl)-3,7-dimethyl-4-oxo-4H-pyrido[1,2-a]pyrimidin-9-yl)ethyl)amino)benzoic acid] | > 10 µM | 0.263 µM
18 | Cc1cc([C@@H](C)Nc2ccccc2C(=O)O)c2nc(N3CCC(c4cc[nH]n4)CC3)c(C)c(=O)n2c1 [Example 11-252, (R)-2-((1-(2-(4-(1H-pyrazol-3-yl)piperidin-1-yl)-3,7-dimethyl-4-oxo-4H-pyrido[1,2-a]pyrimidin-9-yl)ethyl)amino)benzoic acid] | > 10 µM | 0.114 µM
19 | Cc1cc([C@@H](C)Nc2ccccc2C(=O)O)c2nc(C#Cc3ccc(C#N)cc3)c(C)c(=O)n2c1 [Example 11-253, (R)-2-((1-(2-((4-cyanophenyl)ethynyl)-3,7-dimethyl-4-oxo-4H-pyrido[1,2-a]pyrimidin-9-yl)ethyl)amino)benzoic acid] | > 10 µM | 0.492 µM
20 | Cc1cc([C@@H](C)Nc2ccccc2C(=O)O)c2nc(N3CCN(c4ccc(C#N)c5cc(O)ccc45)CC3)c(C)c(=O)n2c1 [Example 11-254, (R)-2-((1-(2-(4-(4-cyano-6-hydroxynaphthalen-1-yl)piperazin-1-yl)-3,7-dimethyl-4-oxo-4H-pyrido[1,2-a]pyrimidin-9-yl)ethyl)amino)benzoic acid] | > 10 µM | 0.124 µM
21 | Cc1cc([C@@H](C)Nc2ccccc2C(=O)O)c2nc(N3CCN(c4ccc(C#N)c5ccc(O)cc45)CC3)c(C)c(=O)n2c1 [Example 11-255, (R)-2-((1-(2-(4-(4-cyano-7-hydroxynaphthalen-1-yl)piperazin-1-yl)-3,7-dimethyl-4-oxo-4H-pyrido[1,2-a]pyrimidin-9-yl)ethyl)amino)benzoic acid] | > 10 µM | 0.28 µM
22 | CC(=O)N1CCC(c2nc3c([C@@H](C)Nc4ccccc4C(=O)O)cc(C)cn3c(=O)c2C#N)CC1 [Example 11-256, (R)-2-((1-(2-(1-acetylpiperidin-4-yl)-3-cyano-7-methyl-4-oxo-4H-pyrido[1,2-a]pyrimidin-9-yl)ethyl)amino)benzoic acid] | > 10 µM | 0.511 µM
23 | Cc1cc(C(C)Nc2ccccc2C(=O)O)c2nc(N3CCN(c4ccc(CN)cc4)CC3)cc(=O)n2c1 (stereo not shown) [Example 11-257, 2-((1-(2-(4-(4-(aminomethyl)phenyl)piperazin-1-yl)-7-methyl-4-oxo-4H-pyrido[1,2-a]pyrimidin-9-yl)ethyl)amino)benzoic acid] | > 10 µM | 9.52 µM
24 | Cc1cc([C@@H](C)Nc2ccccc2C(=O)O)c2nc(N3CCN(c4ncc(C#N)cn4)CC3)c(C)c(=O)n2c1 [Example 11-258, (R)-2-((1-(2-(4-(5-cyanopyrimidin-2-yl)piperazin-1-yl)-3,7-dimethyl-4-oxo-4H-pyrido[1,2-a]pyrimidin-9-yl)ethyl)amino)benzoic acid] | > 10 µM | 0.119 µM
25 | Cc1cc([C@@H](C)Nc2ccccc2C(=O)O)c2nc(N3CCN(c4ccccc4C#N)CC3)c(C#N)c(=O)n2c1 [Example 11-260, (R)-2-((1-(3-cyano-2-(4-(2-cyanophenyl)piperazin-1-yl)-7-methyl-4-oxo-4H-pyrido[1,2-a]pyrimidin-9-yl)ethyl)amino)benzoic acid] | > 10 µM | 0.368 µM
26 | Cc1cc([C@@H](C)Nc2ccccc2C(=O)O)c2nc(N3CCN(C(=O)c4ccccc4)CC3)c(C#N)c(=O)n2c1 [Example 11-263, (R)-2-((1-(2-(4-benzoylpiperazin-1-yl)-3-cyano-7-methyl-4-oxo-4H-pyrido[1,2-a]pyrimidin-9-yl)ethyl)amino)benzoic acid] | > 10 µM | 1.29 µM

From patent US20260078120A1, “SUBSTITUTED PYRIDOPYRIMIDINONES” (MIRATI THERAPEUTICS, INC., priority 2022, published 2026)
